Experimental data reported in patent US9909086B2, “Green glycine betaine derivative compounds and compositions containing same” (priority 2012, dated 2018).

What was measured:
Surface tension = assay type: physicochemical; conditions: pure
Excerpt: Surface properties of betainyl amino alkyl(ene) methane sulfonates and alkyl(ene) betainate methane sulfonate surfactants are set forth below in Table 5. […] Comparative examples are provided by the GLUCOPON surfactants (commercially available from BASF, formerly known as Cognis) which are alkyl polyglucosides having a carbon length as indicated.

Foamability = assay type: physicochemical; conditions: concentration at CMC, flow rate 14 l/min
Excerpt: The surfactants of the invention also have foaming ability. This foaming ability is able to be effectively manipulated, i.e., foaming density increased, based on hydrocarbon chain length.

[1] = Interfacial tension, emulsifying sunflower oil in water; assay type: physicochemical; conditions: purified
[2] = Wetting properties, contact angles on treated substrates; assay type: physicochemical
[3] = Viscosity (thickening and gelling); assay type: physicochemical; conditions: aqueous solution
Excerpt: Table 15 below illustrates the thickening of GB stearic amine aqueous solution as a function of concentration and time.
The examples of Table 15 are compounds present in water alone and, thus, the viscosity continues to change. After a certain point, the viscosity will plateau and not change anymore. If the surfactant is provided at a predetermined concentration, the desired viscosity will be reached right away and not continue to increase due to the stability provided. Thus, generally, as the surfactant concentration increases, so does the initial viscosity. Also over a period of time, the viscosity increases. The viscosity can be controlled to terminate the viscosity increase, i.e., achieve a pre-determined viscosity, by adding salts to the composition. Preferred salts are sodium chloride, potassium chloride, magnesium, chloride, and lithium chloride. Another feature of the invention is the ability to combine GB surfactants with natural polysaccharides to form gel and pseudoplastic viscous liquids or gels. Examples of polysaccharides are agar, carregenan, natural gum, pectin, gelatin, starch, cellulose derivatives, cellulose derived from wood pulp fiber, lignin, etc. […]

[4] = aqueous solution; 20 seconds contact time; pure
[5] = surfactant concentration 1 % w/w
[6] = surfactant concentration 2 % w/w
[7] = surfactant concentration 3 % w/w
[8] = surfactant concentration 4 % w/w
[9] = surfactant concentration 5 % w/w
[10] = surfactant concentration 6 % w/w

Structure (SMILES) | Surface Tension @ CMC (Surface tension) | IFT [1] | Contact angle on treated substrate, Enamel Tiles ([2]; surfactant conc. 1 % (w/w)) | Contact angle on treated substrate, Glass ([2]; surfactant conc. 1 % (w/w)) | Contact angle on treated substrate, Kitchen Soil ([2]; surfactant conc. 1 % (w/w)) | Contact angle on treated substrate, Soap Scum ([2]; surfactant conc. 1 % (w/w)) | Contact angle on treated substrate, Enamel Tiles ([2]; surfactant conc. 3 % (w/w)) | Contact angle on treated substrate, Glass ([2]; surfactant conc. 3 % (w/w)) | Contact angle on treated substrate, Kitchen Soil ([2]; surfactant conc. 3 % (w/w)) | Contact angle on treated substrate, Soap Scum ([2]; surfactant conc. 3 % (w/w)) | further results
CCCCCCCCCCCCNC(=O)C[N+](C)(C)C.CS(=O)(=O)[O-] [GB Lauric amide, Betainyl amino dodecane methane sulfonate] | 38 mN/m | – | – | – | – | – | – | – | – | – | –
CCCCCCCCCCCCCCNC(=O)C[N+](C)(C)C.CS(=O)(=O)[O-] [GB Myristic amide, Betainyl amino tetradecane methane sulfonate] | 38 mN/m | – | – | – | – | – | – | – | – | – | –
CCCCCCCC/C=C\CCCCCCCCNC(=O)C[N+](C)(C)C.CS(=O)(=O)[O-] [GB Oleic amide C18:1) pure, (Z)-betainyl amino octadec-9-ene methane sulfonate, pure] | – | – | – | – | – | – | – | – | – | – | Foam density (Foamability): 18 g/L; Time t: the time to fill 2 liters (Foamability): 85 s
CCCCCCCC/C=C\CCCCCCCCNC(=O)C[N+](C)(C)C.CS(=O)(=O)[O-] [GB Oleic amide, (Z)-betainyl amino octadec-9-ene methane sulfonate] | 36 mN/m | 5.5 mN/m | 27.6 ° | 22.6 ° | 46.4 ° | 31.1 ° | 26.8 ° | 18.8 ° | 38.1 ° | 31.3 ° | –
CCCCCCCCCCCCCCCCNC(=O)C[N+](C)(C)C.CS(=O)(=O)[O-] [GB Palmitic amide, Betainyl amino hexadecane methane sulfonate] | 37 mN/m | – | – | – | – | – | – | – | – | – | –
CCCCCCCCCCCCCCCCCCNC(=O)C[N+](C)(C)C.CS(=O)(=O)[O-] [GB Stearic amide, Betainyl amino octadecane methane sulfonate] | 39 mN/m | 5.2 mN/m | 35.4 ° | 23.1 ° | 39.7 ° | 31.6 ° | 27.1 ° | 19.4 ° | 34.6 ° | 34.3 ° | Initial Viscosity [3, 5]: 120 cP; Viscosity after 15 days [3, 5]: 160 cP; Initial Viscosity [3, 6]: 160 cP; Viscosity after 15 days [3, 6]: 639 cP; Initial Viscosity [3, 7]: 160 cP; Viscosity after 15 days [3, 7]: 807 cP; Initial Viscosity [3, 8]: 2259 cP; Viscosity after 15 days [3, 8]: 3626 cP; Initial Viscosity [3, 9]: 3039 cP; Viscosity after 15 days [3, 9]: 6079 cP; Initial Viscosity [3, 10]: 5279 cP; Viscosity after 15 days [3, 10]: 8851 cP; Bathroom Soap Scum Solubilized [4]: 35%
